Patent US20120252804A1, “COMPOSITION AND METHOD FOR CONTROLLING ARTHROPOD PESTS” (SUMITOMO CHEMICAL COMPANY, LIMITED, priority 2009, published 2012)

Key:
Format in all cases: in vivo
[1] = system: brown planthopper (Nilaparvata lugens); test: Test Example 1: pesticidal effect against brown planthopper by foliage spray treatment of rice; settings: composition of the compound and pyriproxyfen; foliage spray on rice seedlings, third-instar larvae, after 5 days; summary of Table 43
[2] = system: Sweetpotato Whitefly (Bemisia tabaci); test: Test Example 2: pesticidal effect of leaf dipping treatment on Sweetpotato Whitefly; settings: composition of the compound and pyriproxyfen; cabbage leaf disk with eggs dipped 30 seconds, after 8 days; summary of Table 44
[3] = system: brown planthopper (Nilaparvata lugens); test: Test Example 3: pesticidal effect against brown planthopper by foliage spray treatment of rice; settings: composition of the compound and pyriproxyfen; foliage spray on rice seedlings, third-instar larvae, after 5 days; summary of Table 45
[4] = system: Sweetpotato Whitefly (Bemisia tabaci); test: Test Example 4: pesticidal effect of leaf dipping treatment on Sweetpotato Whitefly; settings: composition of the compound and pyriproxyfen; cabbage leaf disk with eggs dipped 30 seconds, after 8 days; summary of Table 46

SMILES | pesticidal efficacy against brown planthopper (Nilaparvata lugens) [1] | pesticidal efficacy on Sweetpotato Whitefly (Bemisia tabaci) [2] | pesticidal efficacy against brown planthopper (Nilaparvata lugens) [3] | pesticidal efficacy on Sweetpotato Whitefly (Bemisia tabaci) [4]
FC(F)(F)c1ccc2oc(-c3ccncc3Cl)nc2c1 [Compound 18, 2-(3-chloropyridin-4-yl)-5-(trifluoromethyl)benzoxazole] | high pesticidal efficacy | high pesticidal efficacy | – | –
FC(F)(F)COc1cnccc1-c1nc2cc(C(F)(F)F)ccc2o1 [Compound 39, 2-[3-(2,2,2-trifluoroethyl)oxypyridin-4-yl]-5-(trifluoromethyl)benzoxazole] | – | – | high pesticidal efficacy | high pesticidal efficacy
CC(C)Oc1cnccc1-c1nc2cc(C(F)(F)F)ccc2o1 [Compound 70, 2-(3-isopropoxypyridin-4-yl)-5-(trifluoromethyl)benzoxazole] | high pesticidal efficacy | high pesticidal efficacy | – | –
FC(F)(F)Sc1ccc2oc(-c3ccncc3Cl)nc2c1 [Compound 77, 2-(3-chloropyridin-4-yl)-5-(trifluoromethylthio)benzoxazole] | high pesticidal efficacy | high pesticidal efficacy | – | –
CCc1cnccc1-c1nc2cc(OC(F)(F)F)ccc2o1 [Compound 109, 2-(3-ethylpyridin-4-yl)-5-(trifluoromethoxy)benzoxazole] | high pesticidal efficacy | high pesticidal efficacy | – | –
CC(C)COc1cnccc1-c1nc2cc(C(F)(F)F)ccc2o1 [Compound 116, 2-(3-isobutoxypyridin-4-yl)-5-(trifluoromethyl)benzoxazole] | – | – | high pesticidal efficacy | high pesticidal efficacy
CC(C)(C)COc1cnccc1-c1nc2cc(C(F)(F)F)ccc2o1 [Compound 117, 2-[3-(2,2-dimethylpropoxy)pyridin-4-yl]-5-(trifluoromethyl)benzoxazole] | – | – | high pesticidal efficacy | high pesticidal efficacy
FC(F)(F)c1ccc2oc(-c3ccncc3-c3cccnc3)nc2c1 [Compound 128, 4-(5-trifluoromethyl-benzoxazole-2-yl)-[3,3]bipyridinyl] | high pesticidal efficacy | high pesticidal efficacy | – | –
FC(F)(F)c1cnc2oc(-c3ccncc3Cl)nc2c1 [Compound 139, 2-(3-chloropyridin-4-yl)-6-(trifluoromethyl)oxazolo[5,4-b]pyridine] | high pesticidal efficacy | high pesticidal efficacy | – | –
CCc1cnccc1-c1nc2cc(C(F)(F)F)cnc2o1 [Compound 143, 2-(3-ethylpyridin-4-yl)-6-(trifluoromethyl)oxazolo[5,4-b]pyridine] | high pesticidal efficacy | high pesticidal efficacy | – | –
CSc1cnccc1-c1nc2cc(C(F)(F)F)cnc2o1 [Compound 146, 2-(3-methylthiopyridin-4-yl)-6-(trifluoromethyl)oxazolo[5,4-b]pyridine] | high pesticidal efficacy | high pesticidal efficacy | – | –
FC(F)(F)COc1cnccc1-c1nc2cc(C(F)(F)F)cnc2o1 [Compound 163] | – | – | high pesticidal efficacy | high pesticidal efficacy
